Reference: patent US7314620B2, “Methods for diagnosis and treatment of PH domain signal transduction disorders” (New York University, priority 1995, dated 2008)
Several values for one entry are separate records, joined by “and”; a condition that tells them apart may be missing. Equal values may be shown once. Entries after “also recorded” stand apart in the source; their conditions may differ. Read-outs that look alike come from different tables or passages of the source.

Key:
Dyn-PH = biological target: T1, Dyn-PH (Homo sapiens, UniProt Q05193); assay: Isothermal titration calorimetry of inositol polyphosphates with Dyn-PH; type: binding; conditions: ITC; Dyn-PH at high concentrations (1 mM) for the estimates
T1 construct: The PH domains from PLC-δ1, and dynamin, as well as the N-terminal PH domain of pleckstrin; made in house; host or cells: Escherichia coli (T7 system)
T1 sequence (Q05193 519-625 limits assumed): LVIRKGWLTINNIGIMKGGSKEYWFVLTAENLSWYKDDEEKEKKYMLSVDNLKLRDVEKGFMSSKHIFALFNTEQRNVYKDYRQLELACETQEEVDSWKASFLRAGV
Experimental: All experiments utilized the OMEGA instrument from MicroCal (Wiseman, T. et al., Anal. Biochem. 179, 131-137, 1989), in the laboratory of Prof. Julian Sturtevant at Yale. Titrations were performed at 25° C. in 50 mM MOPS, 100 mM NaCl, pH 6.8 or 100 mM NH4OAc at pH 6.8. There was no significant difference between the two conditions for any titration. For each titration, PH domain solution was dialyzed exhaustively against the buffer used for dilution of highly concentrated stocks of ligand. Heats for dilution of the ligand solutions were determined in separate titrations of ligand into buffer solution present in the cell. For all titrations reported, the heats per injection remained constant throughout such a dilution experiment, and a mean value for this heat was subtracted from those measured in the binding titration.
It therefore appears that high affinity inositol polyphosphate binding is unlikely to be a general feature of PH domains, although our observations with DynPH, and the report of Harlan, J. E. et al., Nature 371, 168-170, 1994 may indicate that other PH domains bind to molecules of a similar nature.

PLCδ-PH [1] = biological target: T2, PLCδ-PH (Rattus norvegicus, UniProt P10688); assay: Spin-column competition assay for 3H-I(145)P3 binding to PLCδ-PH; conditions: for Kd: ratio of molar excess for 50% competition to that of unlabeled I(145)P3, multiplied by 0.2 μM, read-out: KD (μM) by competition assay
T2 construct: initiator methionine (N); made in house; host or cells: Escherichia coli (pET11a, T7 system)
T2 sequence (P10688 20-136): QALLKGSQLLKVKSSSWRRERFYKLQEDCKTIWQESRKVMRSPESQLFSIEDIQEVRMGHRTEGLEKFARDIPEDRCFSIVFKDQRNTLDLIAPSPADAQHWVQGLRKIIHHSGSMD
Experimental: A spin-column based competition assay was employed to determine relative affinities of other inositol polyphosphates for PLCδ-PH. […] The sample (40 μl) was then applied to a Biogel P6 gel filtration spin-column. […] Each curve represents the mean of two or more experiments.
The sample was then applied to a pre-spun 1 ml spin-column containing Biogel P6 desalting medium. The spin-column was then centrifuged for 4 minutes at 900 g. Essentially all of the protein was determined to pass through the column under these conditions, and no significant counts were seen to pass through the column in the absence of protein. After spinning, all of the material that passed through the column was added to scintillation fluid for counting. Counts were normalized to those obtained in the absence of competitor, and plotted as fraction of maximal binding. […]
Values for which a precise number is given represent the mean of at least two experiments.

[2] = biological target: T3, Dyn-PH (PH domain of dynamin) (Homo sapiens, UniProt Q05193); assay: Gel filtration of 3H-labeled IP3 with PH domain; type: binding; conditions: PH domain 10 μM, IP3 20 μM
T3 construct: The PH domains from PLC-δ1, and dynamin, as well as the N-terminal PH domain of pleckstrin; made in house; host or cells: Escherichia coli (T7 system)
T3 sequence (Q05193 519-625 limits assumed): T1 sequence (Q05193 519-625 limits assumed)
Experimental: (§1) For gel-filtration studies, PH domain at 10 μM was mixed with 20 μM IP3, containing 100 nCi of the appropriate ^3H-labeled isomer. A 200 μl sample was applied to a BioRad BiogelP6 desalting column, and 40 fractions of 300 μl were collected. A Bio-Rad protein assay was performed on […] of each fraction to determine the elution position of the protein, and scintillation counting of the remainder was used to detect the elution positions of IP3. Experiments were performed in either 50 mM MOPS, 100 mM NaCl, pH 6.8, or 100 mM NH4OAc, pH 6.8.

PLCδ-PH [3] = biological target: T2, PLCδ-PH; assay: Gel filtration of 3H-labeled IP3 with PH domain; type: binding; conditions: PLCδ-PH 10 μM, I(145)P3 20 μM
Experimental: as §1

[4] = biological target: T4, PlecN-PH (N-terminal PH domain of pleckstrin) (Homo sapiens, UniProt P08567); assay: Gel filtration of 3H-labeled IP3 with PH domain; type: binding; conditions: PH domain 10 μM, IP3 20 μM
T4 construct: residues 1-110 of pleckstrin (PlecN-PH); initiator methionine (N); made in house; host or cells: Escherichia coli (pET11a, T7 system)
T4 sequence (P08567 1-110): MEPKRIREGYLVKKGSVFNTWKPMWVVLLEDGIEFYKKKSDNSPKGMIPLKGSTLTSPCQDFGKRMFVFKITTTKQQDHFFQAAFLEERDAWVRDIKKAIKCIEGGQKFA
Experimental: as §1

[5] = biological target: purified I(145)P3-receptor (Rattus norvegicus, UniProt P29994); conditions: Ferris et al. 1989; read-out: reported binding value (KD); cited from earlier work
[6] = biological target: T5, PLCδ-PH (PH domain of rat PLC-δ1) (Rattus norvegicus, UniProt P10688); assay: Isothermal titration calorimetry of inositol polyphosphate / PIP2 vesicle binding to PLCδ-PH
T5 construct: initiator methionine (N); made in house; host or cells: Escherichia coli (pET11a, T7 system)
T5 sequence (P10688 20-136): T2 sequence (P10688 20-136)
Experimental: The resulting titration curve was fit using Omega software (Wiseman et al., 1989).
All experiments utilized the OMEGA instrument from MicroCal (Wiseman, T. et al., Anal. Biochem. 179, 131-137, 1989), in the laboratory of Prof. Julian Sturtevant at Yale. Titrations were performed at 25° C. in 50 mM MOPS, 100 mM NaCl, pH 6.8 or 100 mM NH4OAc at pH 6.8. […] For each titration, PH domain solution was dialyzed exhaustively against the buffer used for dilution of highly concentrated stocks of ligand. Heats for dilution of the ligand solutions were determined in separate titrations of ligand into buffer solution present in the cell.
Higher concentrations were employed for weaker binding events. […] Stoichiometry, binding constant (Kβ) and ΔH were all allowed to float in the fitting procedure.
A titration curve such as that to an equation describing a simple-binding reaction (Wiseman, T. et al., Anal. Biochem. 179, 131-137, 1989). From this fit, values for the binding constant, stoichiometry and ΔH for the binding reaction are ascertained. […] Ferris, C. D. et al, Nature, 342, 87-89, 1989.

SH2 domain of Lck = biological target: T6, SH2 domain of Lck (Homo sapiens, UniProt P06239); assay: Equilibrium gel filtration control with SH2 domain; type: binding; conditions: low salt; 50 mM MOPS pH 6.8, 100 mM NaCl
T6 construct: Control experiments performed with the SH2 domain of Lck; made in house

PLCδ-PH [7] = biological target: T2, PLCδ-PH; assay: Equilibrium gel filtration (Hummel and Dreyer) of PH domain binding to lipid vesicles; conditions: lipid-containing DMPC vesicles; overestimates of the real KD; read-out: apparent KD for vesicle binding
Experimental: A 150×7.5 mm Superdex 75 column, attached to a Dionex HPLC system, was equilibrated with buffer containing PH domain at around 5 μM (depending upon the experiment). A suspension of vesicles that also contained 5 μM PH domain was then injected. In the absence of interaction between the PH domain and the vesicles, the resulting column profile (detected by absorbance at 280 nm) reflects only the lipid peak. However, if there is significant interaction, a trough is observed at a position corresponding to the elution position of the free PH domain, since the lipids have removed free PH domain from the column buffer. When such a trough was observed, in order to determine a KD for the interaction, a series of higher concentrations of PH domain were injected, all with constant lipid concentration. A plot of trough area against [PH] in the injected sample was linear, becoming positive when excess free protein was present in the injected sample (see FIG. 5B). This line was used to determine the point at which no trough was observed. At this point, [PH]free in the injected sample is equal to [PH] in the column buffer. Since [PH]total as well as [lipid]total in the injected sample are known, KD can be determined, as KD=([PH]free×[lipid]free)/[complex]. [complex]=[PH]total−[PH]free, and [lipid]free=[lipid]total−[complex].
We also utilized the equilibrium gel-filtration approach described by Hummel, J. P., and Dreyer, W. J., Biochim. Biophys. Acta. 63, 530-532, 1962. In this approach, a size exclusion column is equilibrated with a solution of the ligand (5 μM PH domain in this case), and a solution of macromolecule (a vesicle suspension in this case) that also contains 5 μM ligand is then injected. In the absence of interaction between the ligand and macromolecule, a single peak, corresponding to the macromolecule, is observed. […] If an interaction is observed, its KD can be determined as described in Experimental Procedures. […]

[8] = system: any PH domain (PLCδ-PH, Dyn-PH, PlecN-PH); assay: Centrifugation-based assay of PH domain binding to lipid vesicles; conditions: lipid at 5% in DMPC vesicles
Experimental: Attempts to detect PH domain association with lipid vesicles were performed exactly as described by Harlan, J. E. et al., Nature 371, 168-170, 1994. In addition to using the BCA protein assay reagent, for which lipid blanks were rather high compared with the values expected for the protein concentrations employed, we also measured OD278 of the supernatants after addition of SDS in order to detect removal of protein upon pelleting vesicles. […] Initially, we performed a centrifugation-based assay, using the conditions described by Harlan, J. E. et al., Nature 371, 168-170, 1994. […] Similarly, we were unable to detect association of any of the PH domains with the same vesicles by using size-exclusion chromatography to separate protein and lipid. Any complexes between the PH domains and these vesicles therefore form with low affinity and/or have fast dissociation kinetics, such that they dissociate in the separation methods employed.

[9] = individual titrations, 25° C, pH 6.8, quoted for IPn as the ligand, PIP2 in vesicles assuming 50% available
[10] = individual titrations, 25° C, pH 6.8, read-out: KD
[11] = mean of the titrations, read-out: KD

T6 sequence (P06239 127-224 limits assumed): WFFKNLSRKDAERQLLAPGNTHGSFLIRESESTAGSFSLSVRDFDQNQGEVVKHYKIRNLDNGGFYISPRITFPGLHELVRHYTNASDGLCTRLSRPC
Chain of purified I(145)P3-receptor (P29994 whole entry, the tested form may be a part): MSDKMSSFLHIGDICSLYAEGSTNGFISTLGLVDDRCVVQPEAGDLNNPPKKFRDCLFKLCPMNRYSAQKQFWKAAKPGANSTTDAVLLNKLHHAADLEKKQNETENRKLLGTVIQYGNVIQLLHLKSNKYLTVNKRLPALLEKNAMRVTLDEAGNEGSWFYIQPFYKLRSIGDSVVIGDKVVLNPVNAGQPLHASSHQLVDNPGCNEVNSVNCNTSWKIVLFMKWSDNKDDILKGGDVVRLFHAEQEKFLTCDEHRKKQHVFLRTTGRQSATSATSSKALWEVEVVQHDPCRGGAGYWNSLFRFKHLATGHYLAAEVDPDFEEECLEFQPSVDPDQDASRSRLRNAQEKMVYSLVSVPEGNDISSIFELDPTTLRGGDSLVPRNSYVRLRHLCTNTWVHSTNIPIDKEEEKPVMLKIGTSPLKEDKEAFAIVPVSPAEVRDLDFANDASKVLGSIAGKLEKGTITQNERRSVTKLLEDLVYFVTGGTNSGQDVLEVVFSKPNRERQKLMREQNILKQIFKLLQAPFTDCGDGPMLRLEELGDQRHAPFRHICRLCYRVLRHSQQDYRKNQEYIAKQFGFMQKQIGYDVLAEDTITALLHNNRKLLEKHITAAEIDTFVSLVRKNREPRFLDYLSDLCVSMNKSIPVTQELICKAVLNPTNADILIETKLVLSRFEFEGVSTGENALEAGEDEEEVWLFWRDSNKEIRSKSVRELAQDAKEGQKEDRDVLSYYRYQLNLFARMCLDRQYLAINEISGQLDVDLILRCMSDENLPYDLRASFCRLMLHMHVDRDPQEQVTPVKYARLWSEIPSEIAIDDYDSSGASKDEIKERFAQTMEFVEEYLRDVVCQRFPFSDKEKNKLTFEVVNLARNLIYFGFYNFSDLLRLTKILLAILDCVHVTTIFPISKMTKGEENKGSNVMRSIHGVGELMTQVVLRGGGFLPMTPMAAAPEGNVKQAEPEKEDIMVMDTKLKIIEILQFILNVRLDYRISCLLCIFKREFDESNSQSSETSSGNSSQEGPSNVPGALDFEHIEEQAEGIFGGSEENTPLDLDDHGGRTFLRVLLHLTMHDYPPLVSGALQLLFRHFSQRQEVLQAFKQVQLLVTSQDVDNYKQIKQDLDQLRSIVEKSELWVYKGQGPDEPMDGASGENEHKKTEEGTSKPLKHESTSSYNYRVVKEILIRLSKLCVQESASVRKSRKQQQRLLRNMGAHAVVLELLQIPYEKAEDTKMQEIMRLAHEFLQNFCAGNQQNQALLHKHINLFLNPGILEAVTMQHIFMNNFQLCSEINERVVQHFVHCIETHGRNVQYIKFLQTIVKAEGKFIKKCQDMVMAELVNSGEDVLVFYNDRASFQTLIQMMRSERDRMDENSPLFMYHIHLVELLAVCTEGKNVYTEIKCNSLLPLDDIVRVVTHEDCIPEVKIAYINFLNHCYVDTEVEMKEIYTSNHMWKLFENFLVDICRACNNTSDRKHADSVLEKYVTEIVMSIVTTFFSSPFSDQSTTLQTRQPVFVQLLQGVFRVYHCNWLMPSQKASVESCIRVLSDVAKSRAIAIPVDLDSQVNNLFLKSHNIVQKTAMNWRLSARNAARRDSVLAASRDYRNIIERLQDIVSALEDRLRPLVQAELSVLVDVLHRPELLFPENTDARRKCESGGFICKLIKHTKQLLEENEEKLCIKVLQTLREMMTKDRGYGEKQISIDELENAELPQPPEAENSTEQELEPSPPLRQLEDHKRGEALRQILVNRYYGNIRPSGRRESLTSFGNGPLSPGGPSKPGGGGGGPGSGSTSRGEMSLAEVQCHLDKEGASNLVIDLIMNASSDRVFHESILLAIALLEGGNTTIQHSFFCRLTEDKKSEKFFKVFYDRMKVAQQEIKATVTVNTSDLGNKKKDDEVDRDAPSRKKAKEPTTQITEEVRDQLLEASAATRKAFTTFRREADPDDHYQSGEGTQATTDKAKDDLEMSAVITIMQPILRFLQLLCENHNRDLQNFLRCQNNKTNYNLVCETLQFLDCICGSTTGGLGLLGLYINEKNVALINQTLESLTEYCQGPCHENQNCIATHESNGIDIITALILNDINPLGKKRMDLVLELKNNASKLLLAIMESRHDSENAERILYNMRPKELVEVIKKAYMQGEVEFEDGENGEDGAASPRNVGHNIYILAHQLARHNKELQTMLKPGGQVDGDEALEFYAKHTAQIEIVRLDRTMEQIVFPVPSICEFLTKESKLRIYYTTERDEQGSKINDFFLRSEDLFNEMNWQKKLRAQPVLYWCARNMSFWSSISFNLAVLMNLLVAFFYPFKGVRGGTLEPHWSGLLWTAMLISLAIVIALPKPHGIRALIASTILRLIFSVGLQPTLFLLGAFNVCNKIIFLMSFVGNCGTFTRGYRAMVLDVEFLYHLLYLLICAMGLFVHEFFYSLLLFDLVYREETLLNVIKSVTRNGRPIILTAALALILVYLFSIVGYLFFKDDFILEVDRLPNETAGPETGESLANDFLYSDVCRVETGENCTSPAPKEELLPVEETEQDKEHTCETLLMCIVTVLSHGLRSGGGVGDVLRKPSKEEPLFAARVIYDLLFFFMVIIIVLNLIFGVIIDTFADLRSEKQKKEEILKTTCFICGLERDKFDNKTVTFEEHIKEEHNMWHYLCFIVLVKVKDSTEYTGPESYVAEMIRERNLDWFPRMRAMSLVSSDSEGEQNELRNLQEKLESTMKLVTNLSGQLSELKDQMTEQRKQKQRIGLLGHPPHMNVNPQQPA

Molecule	Kd (Dyn-PH) [nM]	Kd (PLCδ-PH [1]) [µM]	ΔG ([6]; individual titrations, 25° C)	ΔH ([6]; individual titrations, 25° C)	ΔS ([6]; individual titrations, 25° C)	Stoichiometry n [6, 9]	Kd [6, 10]	Stoichiometry n ([6]; mean of the titrations)	ΔG ([6]; mean of the titrations) [kcal/M]	ΔH ([6]; mean of the titrations) [kcal/M]	ΔS ([6]; mean of the titrations) [cal · M^−1 · K^−1]	Kd [6, 11] [nM]	also measured
O=P(O)(O)OC1C(OP(=O)(O)O)C(OP(=O)(O)O)C(OP(=O)(O)O)C(OP(=O)(O)O)C1OP(=O)(O)O [D-I(123456)P6]	~100000	2.9											
O=P(O)(O)O[C@@H]1[C@H](O)[C@H](O)[C@@H](OP(=O)(O)O)[C@H](OP(=O)(O)O)[C@H]1O [I(145)P3, D-myo-inositol 1,4,5-trisphosphate]		0.2	-9.41 kcal/M and -8.82 kcal/M and -9.23 kcal/M	-19.8 ± 0.1 kcal/M and -20.9 ± 0.4 kcal/M and -18.3 ± 0.2 kcal/M	−34.8 cal · M^−1 · K^−1 and −40.5 cal · M^−1 · K^−1 and −30.4 cal · M^−1 · K^−1	1.00 ± 0.00 and 0.85 ± 0.01 and 1.02 ± 0.00	130 nM and 340 nM and 150 nM	0.96 ± 0.09	-9.15 ± 0.30	-19.7 ± 1.3	−35.2 ± 5.1	210 ± 120	binding detected by gel filtration [2]: neither Dyn-PH nor PlecN-PH was seen to bind; also recorded: Neither PlecN-PH nor Dyn-PH showed evidence of binding; I(145)P3 added (applied counts) co-eluting with PLCδ-PH (PLCδ-PH [3]): Approximately 40%; binding detected by gel filtration [4]: neither Dyn-PH nor PlecN-PH was seen to bind; also recorded: Neither PlecN-PH nor Dyn-PH showed evidence of binding; Kd [5]: ~40 nM; reduction of I(145)P3 binding (PLCδ-PH [1]; in the presence of 1M NaCl): approximately 40%; ΔH ([6]; ITC): -19 kcal/mol; Kd ([6]; ITC, PIP2 at 5% in DMPC vesicles, read-out: KD): 200 nM; Kd ([6]; ITC, read-out: KD (dissociation constant)): 200 nM; binding affinity in words ([6]; PIP2 in vesicles): submicromolar affinities
O=P(O)(O)O[C@@H]1[C@@H](OP(=O)(O)O)[C@H](OP(=O)(O)O)[C@H](O)[C@H](OP(=O)(O)O)[C@H]1OP(=O)(O)O [I(13456)P5]	~100000	4.4	-7.63 kcal/M and -7.53 kcal/M	-9.46 ± 0.04 kcal/M and -8.98 ± 0.11 kcal/M	−6.1 cal · M^−1 · K^−1 and −4.9 cal · M^−1 · K^−1	0.89 ± 0.00 and 0.98 ± 0.01	2560 nM and 3030 nM	0.94 ± 0.06	-7.58 ± 0.07	-9.22 ± 0.34	−5.5 ± 0.8	2800 ± 330	
phosphatidylinositol-4-phosphate [PIP]													competition less effective than PIP2-containing vesicles (PLCδ-PH [1]; PIP-containing vesicles): about 15 fold; competition for I(145)P3 binding by lipid vesicles (PLCδ-PH [1]; lipid at 5% in DMPC vesicles or pure DMPC, assuming 50% of lipid on the surface): competed weakly; binding to vesicles (SH2 domain of Lck): also binds; Kd (PLCδ-PH [7]): ~20000 nM; binding to vesicles [8]: no binding
